Measurements from paper PMC10963859 (Redox Biology, 2024).

Biological target: GPX4
Assay type: biochemical
Conditions: covalent; without GCTR

COC(=O)c1ccc([C@H]2c3[nH]c4ccccc4c3C[C@H](C(=O)OC)N2C(=O)CCl)cc1 [RSL3]
IC50: 12.4 µM
